Read-outs that look alike come from different tables or passages of the source.
Test system: Aedes aegypti
Assay: In vitro contact activity against adult mosquitoes (coated vial)
Protocol: Aedes aegypti (Louisiana Biologicals Inc., New Orleans, La.) eggs were allowed to hatch, close, and age between 3-5 days in an environmental chamber at 26° C., 80% humidity with light/dark cycles.
For mosquito assays, an aliquot from each compound stock was added to an acetone/triton solution to achieve the desired top doses for the study. Serial dilutions were conducted from the top dose (i.e. 50 ppm) to achieve the desired titration range for EC50 and EC90 determination. The final DMSO concentration in each test vial was 0.5%. A 459 μL aliquot of each compound formulation was transferred to a vial and vials were immediately placed on an unheated roller unit to allow for an even coating of the vial walls. The vials were loosely capped and allowed to dry for a minimum of four hours in a chemical fume hood.
For both contact and ingestion assays, five female Aedes aegypti adults were added to each vial or cage. The test vials for contact assays were held in an environmental chamber at 24° C., 80% humidity with light/dark cycles (12 hours each). The cages for mosquito ingestion assays were held in a temperature-controlled artificial feeding apparatus to allow continual access to organic bovine blood containing the desired concentration of compound. Fresh aliquots of compound-spiked bovine blood were provided daily for the duration of the study.
Mosquitoes showing no movement or mosquitoes that were knocked down were noted as dead. Results from trial 1 and trial 2 contact assays are shown in Tables 12 and 13, respectively and the results from trial 3 mosquito ingestion assay is shown in table 14.
For the mosquito contact and ingestion assays, each replicate contained 5 mosquitoes. For ease of calculation, the two replicates were added to equal a total of 10 mosquitoes.

In the case of O=C(CC(F)(F)F)N1CC2(C1)OCc1cc(C3=NS[C@@](c4cc(Cl)c(F)c(Cl)c4)(C(F)(F)F)C3)ccc12 [C1 (S) enantiomer, (S)-1-[6-[5-(3,5-dichloro-4-fluoro-phenyl)-5-(trifluoromethyl)-4H-isothiazol-3-yl]spiro[1H-isobenzofuran-3,3′-azetidine]-1′-yl]-3,3,3-trifluoro-propan-1-one], the mortality at 0.049 µM (0.5 h, read-out: % Mortality R1 + R2, Trial 1, contact assay, dose 0.049 μM, 0.5 Hr) is reported as 0%, the mortality at 0.2 µM (0.5 h, read-out: % Mortality R1 + R2, Trial 1, contact assay, dose 0.20 μM, 0.5 Hr) is reported as 0% and the mortality at 0.78 µM (0.5 h, read-out: % Mortality R1 + R2, Trial 1, contact assay, dose 0.78 μM, 0.5 Hr) is reported as 0%. For the same compound, the mortality at 3.125 µM (0.5 h, read-out: % Mortality R1 + R2, Trial 1, contact assay, dose 3.125 μM, 0.5 Hr) was 0%, the mortality at 12.5 µM (0.5 h, read-out: % Mortality R1 + R2, Trial 1, contact assay, dose 12.5 μM, 0.5 Hr) was 0% and the mortality at 50 µM (0.5 h, read-out: % Mortality R1 + R2, Trial 1, contact assay, dose 50 μM, 0.5 Hr) was 0%. It also gave a mortality at 0.049 µM (0.5 h, read-out: % Mortality R1 + R2, Trial 2, contact assay, dose 0.049 μM, 0.5 Hr) of 0%, a mortality at 0.2 µM (0.5 h, read-out: % Mortality R1 + R2, Trial 2, contact assay, dose 0.20 μM, 0.5 Hr) of 0% and a mortality at 0.78 µM (0.5 h, read-out: % Mortality R1 + R2, Trial 2, contact assay, dose 0.78 μM, 0.5 Hr) of 0%. For the same compound, the mortality at 3.125 µM (0.5 h, read-out: % Mortality R1 + R2, Trial 2, contact assay, dose 3.125 μM, 0.5 Hr) was 0%, the mortality at 12.5 µM (0.5 h, read-out: % Mortality R1 + R2, Trial 2, contact assay, dose 12.5 μM, 0.5 Hr) was 0% and the mortality at 50 µM (0.5 h, read-out: % Mortality R1 + R2, Trial 2, contact assay, dose 50 μM, 0.5 Hr) was 0%. It also gave a mortality at 0.049 µM (1 h, read-out: % Mortality R1 + R2, Trial 1, contact assay, dose 0.049 μM, 1 hr) of 0%, a mortality at 0.2 µM (1 h, read-out: % Mortality R1 + R2, Trial 1, contact assay, dose 0.20 μM, 1 hr) of 0% and a mortality at 0.78 µM (1 h, read-out: % Mortality R1 + R2, Trial 1, contact assay, dose 0.78 μM, 1 hr) of 0%. The mortality at 3.125 µM (1 h, read-out: % Mortality R1 + R2, Trial 1, contact assay, dose 3.125 μM, 1 hr) was 0%, the mortality at 12.5 µM (1 h, read-out: % Mortality R1 + R2, Trial 1, contact assay, dose 12.5 μM, 1 hr) was 0% and the mortality at 50 µM (1 h, read-out: % Mortality R1 + R2, Trial 1, contact assay, dose 50 μM, 1 hr) was 0%. The mortality at 0.049 µM (1 h, read-out: % Mortality R1 + R2, Trial 2, contact assay, dose 0.049 μM, 1 hr) was 0%, the mortality at 0.2 µM (1 h, read-out: % Mortality R1 + R2, Trial 2, contact assay, dose 0.20 μM, 1 hr) was 0% and the mortality at 0.78 µM (1 h, read-out: % Mortality R1 + R2, Trial 2, contact assay, dose 0.78 μM, 1 hr) was 0%. The mortality at 3.125 µM (1 h, read-out: % Mortality R1 + R2, Trial 2, contact assay, dose 3.125 μM, 1 hr) was 0%, the mortality at 12.5 µM (1 h, read-out: % Mortality R1 + R2, Trial 2, contact assay, dose 12.5 μM, 1 hr) was 0% and the mortality at 50 µM (1 h, read-out: % Mortality R1 + R2, Trial 2, contact assay, dose 50 μM, 1 hr) was 0%. It also gave a mortality at 0.049 µM (6 h, read-out: % Mortality R1 + R2, Trial 1, contact assay, dose 0.049 μM, 6 hr) of 0%, a mortality at 0.2 µM (6 h, read-out: % Mortality R1 + R2, Trial 1, contact assay, dose 0.20 μM, 6 hr) of 0% and a mortality at 0.78 µM (6 h, read-out: % Mortality R1 + R2, Trial 1, contact assay, dose 0.78 μM, 6 hr) of 0%. It also gave a mortality at 3.125 µM (6 h, read-out: % Mortality R1 + R2, Trial 1, contact assay, dose 3.125 μM, 6 hr) of 0%, a mortality at 12.5 µM (6 h, read-out: % Mortality R1 + R2, Trial 1, contact assay, dose 12.5 μM, 6 hr) of 30% and a mortality at 50 µM (6 h, read-out: % Mortality R1 + R2, Trial 1, contact assay, dose 50 μM, 6 hr) of 100%. For the same compound, the mortality at 0.049 µM (6 h, read-out: % Mortality R1 + R2, Trial 2, contact assay, dose 0.049 μM, 6 hr) was 0%, the mortality at 0.2 µM (6 h, read-out: % Mortality R1 + R2, Trial 2, contact assay, dose 0.20 μM, 6 hr) was 0% and the mortality at 0.78 µM (6 h, read-out: % Mortality R1 + R2, Trial 2, contact assay, dose 0.78 μM, 6 hr) was 0%. It also gave a mortality at 3.125 µM (6 h, read-out: % Mortality R1 + R2, Trial 2, contact assay, dose 3.125 μM, 6 hr) of 0%, a mortality at 12.5 µM (6 h, read-out: % Mortality R1 + R2, Trial 2, contact assay, dose 12.5 μM, 6 hr) of 10% and a mortality at 50 µM (6 h, read-out: % Mortality R1 + R2, Trial 2, contact assay, dose 50 μM, 6 hr) of 100%. It also gave a mortality at 0.049 µM (12 h, read-out: % Mortality R1 + R2, Trial 1, contact assay, dose 0.049 μM, 12 hr) of 0%, a mortality at 0.2 µM (12 h, read-out: % Mortality R1 + R2, Trial 1, contact assay, dose 0.20 μM, 12 hr) of 0% and a mortality at 0.78 µM (12 h, read-out: % Mortality R1 + R2, Trial 1, contact assay, dose 0.78 μM, 12 hr) of 0%. It also gave a mortality at 3.125 µM (12 h, read-out: % Mortality R1 + R2, Trial 1, contact assay, dose 3.125 μM, 12 hr) of 10%, a mortality at 12.5 µM (12 h, read-out: % Mortality R1 + R2, Trial 1, contact assay, dose 12.5 μM, 12 hr) of 70% and a mortality at 50 µM (12 h, read-out: % Mortality R1 + R2, Trial 1, contact assay, dose 50 μM, 12 hr) of 100%. The mortality at 0.049 µM (12 h, read-out: % Mortality R1 + R2, Trial 2, contact assay, dose 0.049 μM, 12 hr) was 0%, the mortality at 0.2 µM (12 h, read-out: % Mortality R1 + R2, Trial 2, contact assay, dose 0.20 μM, 12 hr) was 10% and the mortality at 0.78 µM (12 h, read-out: % Mortality R1 + R2, Trial 2, contact assay, dose 0.78 μM, 12 hr) was 0%. The mortality at 3.125 µM (12 h, read-out: % Mortality R1 + R2, Trial 2, contact assay, dose 3.125 μM, 12 hr) was 20%, the mortality at 12.5 µM (12 h, read-out: % Mortality R1 + R2, Trial 2, contact assay, dose 12.5 μM, 12 hr) was 100% and the mortality at 50 µM (12 h, read-out: % Mortality R1 + R2, Trial 2, contact assay, dose 50 μM, 12 hr) was 100%. The mortality at 0.049 µM (24 h, read-out: % Mortality R1 + R2, Trial 1, contact assay, dose 0.049 μM, 24 hr) was 0%, the mortality at 0.2 µM (24 h, read-out: % Mortality R1 + R2, Trial 1, contact assay, dose 0.20 μM, 24 hr) was 0% and the mortality at 0.78 µM (24 h, read-out: % Mortality R1 + R2, Trial 1, contact assay, dose 0.78 μM, 24 hr) was 0%. The mortality at 3.125 µM (24 h, read-out: % Mortality R1 + R2, Trial 1, contact assay, dose 3.125 μM, 24 hr) was 60%, the mortality at 12.5 µM (24 h, read-out: % Mortality R1 + R2, Trial 1, contact assay, dose 12.5 μM, 24 hr) was 100% and the mortality at 50 µM (24 h, read-out: % Mortality R1 + R2, Trial 1, contact assay, dose 50 μM, 24 hr) was 100%. It also gave a mortality at 0.049 µM (24 h, read-out: % Mortality R1 + R2, Trial 2, contact assay, dose 0.049 μM, 24 hr) of 0%, a mortality at 0.2 µM (24 h, read-out: % Mortality R1 + R2, Trial 2, contact assay, dose 0.20 μM, 24 hr) of 30% and a mortality at 0.78 µM (24 h, read-out: % Mortality R1 + R2, Trial 2, contact assay, dose 0.78 μM, 24 hr) of 0%. It also gave a mortality at 3.125 µM (24 h, read-out: % Mortality R1 + R2, Trial 2, contact assay, dose 3.125 μM, 24 hr) of 100%, a mortality at 12.5 µM (24 h, read-out: % Mortality R1 + R2, Trial 2, contact assay, dose 12.5 μM, 24 hr) of 100% and a mortality at 50 µM (24 h, read-out: % Mortality R1 + R2, Trial 2, contact assay, dose 50 μM, 24 hr) of 100%. The mortality at 0.049 µM (48 h, read-out: % Mortality R1 + R2, Trial 1, contact assay, dose 0.049 μM, 48 hr) was 0%, the mortality at 0.2 µM (48 h, read-out: % Mortality R1 + R2, Trial 1, contact assay, dose 0.20 μM, 48 hr) was 10% and the mortality at 0.78 µM (48 h, read-out: % Mortality R1 + R2, Trial 1, contact assay, dose 0.78 μM, 48 hr) was 10%. The mortality at 3.125 µM (48 h, read-out: % Mortality R1 + R2, Trial 1, contact assay, dose 3.125 μM, 48 hr) was 100%, the mortality at 12.5 µM (48 h, read-out: % Mortality R1 + R2, Trial 1, contact assay, dose 12.5 μM, 48 hr) was 100% and the mortality at 50 µM (48 h, read-out: % Mortality R1 + R2, Trial 1, contact assay, dose 50 μM, 48 hr) was 100%. For the same compound, the mortality at 0.049 µM (48 h, read-out: % Mortality R1 + R2, Trial 2, contact assay, dose 0.049 μM, 48 hr) was 0%, the mortality at 0.2 µM (48 h, read-out: % Mortality R1 + R2, Trial 2, contact assay, dose 0.20 μM, 48 hr) was 90% and the mortality at 0.78 µM (48 h, read-out: % Mortality R1 + R2, Trial 2, contact assay, dose 0.78 μM, 48 hr) was 100%. The mortality at 3.125 µM (48 h, read-out: % Mortality R1 + R2, Trial 2, contact assay, dose 3.125 μM, 48 hr) was 100%, the mortality at 12.5 µM (48 h, read-out: % Mortality R1 + R2, Trial 2, contact assay, dose 12.5 μM, 48 hr) was 100% and the mortality at 50 µM (48 h, read-out: % Mortality R1 + R2, Trial 2, contact assay, dose 50 μM, 48 hr) was 100%.

— US10807992B2, “Single enantiomer antiparasitic compounds” (priority 2017, dated 2020)
